Data on four molecules can be found in BindingDB's records for doi:10.1016/j.ejmech.2016.06.019 (Federal University of Minas Gerais, 2016).

The structures appear in SMILES notation. A value given as a limit tells only on which side of the number the result lay.

The nature of this assay: Activation of NQO1 in human A549 cells assessed as decrease in cell survival incubated for 2 hrs measured after 7 days in presence of NQO1 inhibitor dicoumarol by Hoechst 33258 staining based assay.
One may read the IC50 as the midpoint of a concentration-inhibition curve. Consider `CC1(C)OC2=C(C(=O)C(=O)c3ccccc32)C1Nc1cccc(-c2cn(C[Se]c3ccccc3)nn2)c1` (centres undefined), for which the IC50 was greater than 3.2 µM. The value for `CC1(C)OC2=C(C(=O)C(=O)c3ccccc32)C1Nc1ccc([N+](=O)[O-])cc1` (centres undefined) was greater than 3.2 µM; that for `CC1(C)OC2=C(C(=O)C(=O)c3ccccc32)C1Nc1cccc([N+](=O)[O-])c1` (centres undefined) was greater than 3.2 µM; that for `CC1(C)OC2=C(C(=O)C(=O)c3ccccc32)C1Nc1ccc(F)c([N+](=O)[O-])c1` (centres undefined) was greater than 3.2 µM.
